From paper PMC9127252, “Synthesis of sulfur karrikin bioisosteres as potential neuroprotectives” (Beilstein Journal of Organic Chemistry, 2022)

Legend:
AChE = test system: AChE; set-up: method as in PMID 31014820; conditions: cited from earlier work; for inhibition effects on AChE: in words
MAO-B = test system: MAO-B; set-up: method as in PMID 31014820; conditions: cited from earlier work
seed germination = test system: seed germination; set-up: method as in doi:10.1016/j.sajb.2013.12.003; conditions: compared with KAR1; cited from earlier work
[1] = target: T1, AChE from Electrophorus electricus (Electrophorus electricus, UniProt O42275); assay: biochemical; conditions: for AChE residual activity at 10 µM (% of untreated): 10 µM compound, t = 25 min, triplicates, mean ± SD; for inhibition at 10 µM: read-out: AChE inhibition at 10 µM screening concentration
T1 construct: purchased Sigma-Aldrich, Germany
T1 sequence (O42275 24-633): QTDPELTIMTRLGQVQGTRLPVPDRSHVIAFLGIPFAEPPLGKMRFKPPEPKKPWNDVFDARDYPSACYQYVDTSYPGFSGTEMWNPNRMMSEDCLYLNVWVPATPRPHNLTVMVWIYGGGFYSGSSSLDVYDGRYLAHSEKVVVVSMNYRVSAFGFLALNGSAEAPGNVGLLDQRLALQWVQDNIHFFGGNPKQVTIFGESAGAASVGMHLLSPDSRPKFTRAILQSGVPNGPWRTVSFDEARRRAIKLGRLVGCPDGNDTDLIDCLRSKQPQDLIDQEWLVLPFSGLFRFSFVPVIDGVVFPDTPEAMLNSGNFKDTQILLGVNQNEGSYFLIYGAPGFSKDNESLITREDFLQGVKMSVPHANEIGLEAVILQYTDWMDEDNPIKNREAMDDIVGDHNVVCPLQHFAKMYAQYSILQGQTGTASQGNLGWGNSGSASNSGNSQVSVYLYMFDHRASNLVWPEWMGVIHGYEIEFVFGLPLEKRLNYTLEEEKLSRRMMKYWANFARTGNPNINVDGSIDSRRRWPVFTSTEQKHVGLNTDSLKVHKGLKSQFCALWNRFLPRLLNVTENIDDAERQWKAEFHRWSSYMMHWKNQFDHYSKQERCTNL
Experimental: The compounds were further tested for their ability to inhibit AChE in vitro [24].
Acetylcholine esterase (AChE) assay
Determination of AChE activity was based on the original method by Ellman adapted for 384 well plate format. The plates were first pre-spotted with 20 nL of 10 mM DMSO solution of the compound with the use of ECHO 550® liquid handler (to reach 10 µM final concentration). Master mix solution was prepared alongside and kept on ice until dispensed in the wells. The mix consisted of 1.5 mM acetylthiocholine iodide (ATCI), 1.5 mM 5,5-dithiobis(2-nitrobenzoic acid) (DTNB) and 30 mU/mL AChE from Electrophorus electricus (Sigma-Aldrich, Germany) in 50 mM TRIS-Cl buffer, pH 7.5, containing 0.04% BSA, 50 mM NaCl and 10 mM MgCl2. 20 µL of the master mix was then dispensed into the wells of a transparent flat-bottom 384-well plate (Nunc). The microplate was briefly but vigorously mixed on an orbital shaker and placed into a Tecan SPARK microplate reader where the absorbance at 405 nm was continuously monitored for 25 min (linear range). In parallel, the no-enzyme control reaction was run to exclude interference of the compounds with the assay. The background value was subtracted from the signal of the enzyme-containing wells. Enzyme inhibition was expressed as a signal percentage compared to an uninhibited reaction at t = 25 min: % residual activity = (A405 sample/A405 control) × 100. […]
were analysed with the use of Prism 9 (GraphPad Inc., San Diego, USA). The values were measured in triplicates, and the results are p resented as means ± SD. […]

In the case of `Cc1cc2c(C)c(=O)oc-2co1` [Compound 3, reference compound], the IC50 (AChE) is given as 370 ± 20 nM and the “inhibition effects on AChE” value (AChE) is given as “submicromolar”.

For `Cc1c2ccscc-2oc1=O` [Compound 8, 3-methyl-2H-thiopyrano[3,4-b]furan-2-one], the IC50 (MAO-B) is given as 30 nM, the IC50 (AChE) is given as 80 ± 6 nM and the “inhibition effects on AChE” value (AChE) is given as “submicromolar”. The germination activity (seed germination) was “lower germination activity than KAR1”.

In the case of `Cc1c2ccocc-2oc1=S` [Compound 9], the “AChE residual activity at 10 µM (% of untreated)” value [1] is reported as 95 ± 8 % of untreated.

For `S=c1cc2ccocc-2o1` [Compound 10], the “AChE residual activity at 10 µM (% of untreated)” value [1] was 99 ± 3 % of untreated.

For `Cc1cc2c(C)c(=S)oc-2co1` [Compound 11], the “AChE residual activity at 10 µM (% of untreated)” value [1] was 93 ± 3 % of untreated.

With `Cc1occc2c(C)c(=S)oc1-2` [Compound 12] the “AChE residual activity at 10 µM (% of untreated)” value [1] was 91 ± 2 % of untreated.

For `Cc1cc2c(C)c(=O)oc-2cs1` [Compound 20], the “AChE residual activity at 10 µM (% of untreated)” value [1] was 90 ± 2 % of untreated.

For `Cc1sccc2c(C)c(=O)oc1-2` [Compound 21], the “AChE residual activity at 10 µM (% of untreated)” value [1] was 91 ± 2 % of untreated.

In the case of `O=c1cc2ccscc-2o1` [Compound 26], the “AChE residual activity at 10 µM (% of untreated)” value [1] is reported as 99 ± 0.4 % of untreated.

With `Cc1c2ccscc-2oc1=S` [Compound 27] the “AChE residual activity at 10 µM (% of untreated)” value [1] was 97 ± 5 % of untreated.

With `Cc1cc2c(C)c(=S)oc-2cs1` [Compound 28] the “AChE residual activity at 10 µM (% of untreated)” value [1] was 85 ± 1 % of untreated and the inhibition at 10 µM [1] was about 15%.

With `Cc1sccc2c(C)c(=S)oc1-2` [Compound 29] the “AChE residual activity at 10 µM (% of untreated)” value [1] was 86 ± 2 % of untreated and the inhibition at 10 µM [1] was about 15%.

With `S=c1cc2ccscc-2o1` [Compound 30] the “AChE residual activity at 10 µM (% of untreated)” value [1] was 92 ± 1 % of untreated.
